Consider three sequences from patent publication US20230035403A1, “Method For Determining Responsiveness To Prostate Cancer Treatment” (Janssen Biotech, Inc., priority 2020, published 2023).

In assay [1] the test system is autologous CD3+ Pan-T cells (CD8+ and CD4+ T cells) with peptide-pulsed CD1c+ Dendritic Cells. Kind of assay: Exogenous autologous normal donor restimulation assay (in vitro immunogenicity). The format is cell-based, human. The settings on record: Table 25, pool of overlapping 15-mer peptides, maximum across normal donors; for Maximum Fold Change Over Background CD4+ cells: TNFα+IFNγ+ CD4+ T cells; for Maximum Fold Change Over Background CD4+ cells / Maximum Fold Change Over Background CD8+ cells: over negative control; for Maximum Fold Change Over Background CD8+ cells: TNFα+IFNγ+ CD8+ T cells. Here is the method: CD1c+ Dendritic Cells (DC) isolated from human normal PBMCs were thawed using media (IMDM (Gibco) supplemented with glutamine, HEPES, 5% human serum (Sigma), and 1× Pen-Strep). DC cells were resuspended in media supplemented with IL-4 (Peprotech, 80 ng/mL) and GM-CSF (Gibco, 80 ng/mL), plated in 6 well microplates, and rested overnight at 37° C. (5% CO2). The following day, DC cells were counted and plated in a 96 well round bottom microplate at a concentration of 30,000 viable cells per well. Lyophilized peptides (15-mer overlapping peptides) were solubilized in 100% DMSO and pooled by neoantigen to between 5 mg/mL and 20 mg/mL. Neoantigen peptides pools were added to DCs for a final concentration of 2.5 μg/mL to 10 μg/mL and rested for 2 hours at 37° C. (5% CO2). CEF Peptide Pool “Plus” (Cellular Technologies, Ltd.) was utilized as a positive control and DMSO at the same final concentration as the experimental peptides was utilized as a negative control. After 2 hours, DC cells were irradiated with 50 gray of ionizing radiation. Autologous CD3+ Pan-T cells isolated from human normal PBMCs were thawed using media. Following irradiation, autologous Pan-T cells were added to the irradiated DCs at 300,000 viable cells per well. Human IL-15 (Peprotech) was added to all wells at final concentration of 10 ng/mL.
Plates were incubated at 37° C. (5% CO2) for a total of 12 days. Media was refreshed every 2-3 days with IL-15 (10 ng/mL final concentration) and IL-2 (R&D systems, 10 IU/mL final concentration). On day 11 cells were re-stimulated with identical experimental peptide pools or controls, at same concentration as peptide stimulation on Day 1. Protein Inhibitor Cocktail (eBioscience) was added to every well and plate was incubated overnight at 37° C. (5% CO2).
On day 12, cells were stained for intracellular flow cytometry analysis. The cells were washed with PBS and stained with Live/Dead Fixable Aqua Dead Cell stain (Thermo-Fisher). Following the live/dead stain, cells were blocked using Biotin-Free Fc Receptor Blocker (Accurate Chemical & Scientific Corp). Extracellular cellular flow panel (1 μL/antibody per well in 50 μL) consisted of CD3 PerCP-Cy5.5 (Biolegend), CD4 BV421 (Biolegend), and CD8 APC-Cy7 (Biolegend). After extracellular staining, cells were fixed using Foxp3/Transcription Factor Staining Buffer Set (eBioscience) and stained for intracellular proteins (1:50 dilution) using TNFα FITC (R&D Systems) and IFNγ BV785 (Biolegend). Cells were washed and resuspended in stain buffer and analyzed using a BD Celesta flow cytometer.
Flow cytometry cell staining analysis was completed using FlowJo v10. Cells were gated on live, singlet, CD3+ cells. The CD8+ and CD4+ T cells were analyzed for TNFα/IFNγ expression and the frequency of double positive TNFα/IFNγ CD8+ and the frequency of double positive TNFα/IFNγ CD4+ T cells were recorded. Responses were assessed to be positive when the frequency of double positive TNFα/IFNγ CD8+ or TNFα/IFNγ CD4+ T cells due to stimulation with an experimental peptide pool was increased greater than or equal to 3-fold over the DMSO only negative control for that donor and at least 0.01%.
Overlapping 15-mer peptides were designed to span each neoantigen incorporated into NeoGAd20 and NeoMVA to assess their ability to activate T cells using the exogenous autologous normal donor restimulation assay described in Example 1 as pools using TNFα and IFNγ production by CD8^+ and CD4^+ T cells as a readout.
Immunogenicity of various additional identified neoantigens was assessed. Overlapping 15-mer peptides were designed to span each neoantigen similarly to what was done in Example 11 to assess their ability to activate T cells using the exogenous autologous normal donor restimulation assay described in Example 1 as pools using TNFα and IFNγ production by CD8^+ and CD4^+ T cells as a readout.

Assay [2] has as its system autologous CD3+ Pan-T cells (CD8+ and CD4+ T cells) with Ad5-transduced CD1c+ Dendritic Cells. The assay can be described thus: Endogenous autologous normal donor restimulation assay (Ad5-transduced dendritic cells). Type of assay: cell-based, human. The settings on record: Table 27, restimulation with overlapping 15-mer peptide pools, maximum across sixteen donors. On the procedure:
CD1c+ Dendritic Cells (DC) isolated from human normal PBMCs were thawed using media (IMDM (Gibco) supplemented with glutamine, HEPES, 5% human serum (Sigma), and 1× Pen-Strep). DC cells were resuspended in media supplemented with IL-4 (Peprotech, 80 ng/mL) and GM-CSF (Gibco, 80 ng/mL), plated in 6 well microplates, and rested overnight at 37° C. (5% CO2). The following day, DC cells were counted and plated in a 96 well round bottom microplate at a concentration of 30,000 viable cells per well. Ad5 vectors (Vector Biolabs) were dilute in media to an MOI (Multiplicity Of Infection) of 5000 based on Plaque Forming Units. Ad5 vectors for the CEF pool and a “null” were used as controls. DCs were transduced with Ad5 vectors overnight at 37° C. (5% CO2). The following day, the Ad5 vectors were washed off the plate by three sequential centrifugation/aspiration steps using sterile Phosphate Buffered Saline. After the final wash, transduced DCs were resuspended in 100 μL media. Autologous CD3+ Pan-T cells isolated from human normal PBMCs were thawed using media. Pan-T cells were added to the irradiated DCs at 300,000 viable cells per well (100 μL/well). Human IL-15 (Peprotech) was added to all wells at final concentration of 10 ng/mL.
Plates were incubated at 37° C. (5% CO2) for a total of 12 days. Media was refreshed every 2-3 days with IL-15 (10 ng/mL final concentration) and IL-2 (R&D systems, 10 IU/mL final concentration). On day 11 lyophilized peptides (15-mer overlapping peptides) were solubilized in 100% DMSO and pooled by neoantigen to between 5 mg/mL and 20 mg/mL. […]
On day 12, cells were stained for intracellular flow cytometry analysis. […] Cells were washed and resuspended in stain buffer and analyzed using a BD Celesta flow cytometer.
Flow cytometry cell staining analysis was completed using FlowJo v10. […] The CD8+ and CD4+ T cells were analyzed for TNFα/IFNγ expression and the frequency of double positive TNFα/IFNγ CD8+ and the frequency of double positive TNFα/IFNγ CD4+ T cells were recorded. Responses were assessed to be positive when the frequency of double positive TNFα/IFNγ CD8+ or TNFα/IFNγ CD4+ T cells due to stimulation with an experimental peptide pool was increased greater than or equal to 3-fold over the DMSO only negative control for that donor and at least 0.01%.
For three of the neoantigens, an Ad5 vector was designed to transduce normal Dendritic cells with the neoantigens. This assay assessed the ability of the endogenously expressed and presented neoantigens to activate autologous T cells following overlapping 15-mer peptide pools restimulation using the endogenous autologous normal donor restimulation assay described in Example 1 utilizing TNFα and IFNγ production by CD8^+ and CD4^+ T cells as a readout. […]

Consider SLYHREKQLIAMDSAI [Neoantigen P22], for which, in assay [1], the “Maximum Fold Change Over Background CD4+ cells” value amounted to 18.16, the “Maximum Fold Change Over Background CD8+ cells” value is 1.56, the “Maximum Frequency of TNFα/IFNγ Double Positive CD4+ T cells” value worked out at 0.075 and the “Maximum Frequency of TNFα/IFNγ Double Positive CD8+ T cells” value is given as 0.025.
Taken in the same sequence, the figures for “YEAGMTLGEKFRVGNCKHLKMTRP [Neoantigen P82]” were 4.44, 2.92, 0.17 and 0.09.
With “YEAGMTLGGKILFFLFLLLPLSPFSLIF [Neoantigen P87]”, in assay [2], the “Maximum Fold Change Over Background CD4+ cells” value was 2.41, the “Maximum Fold Change Over Background CD8+ cells” value came out at 2.47, the “Maximum Frequency of TNFα/IFNγ Double Positive CD4+ T cells” value came to 0.079 and the “Maximum Frequency of TNFα/IFNγ Double Positive CD8+ T cells” value stood at 0.39. In assay [1], the “Maximum Fold Change Over Background CD4+ cells” value was found to be 7.86, the “Maximum Fold Change Over Background CD8+ cells” value amounted to 9.20, the “Maximum Frequency of TNFα/IFNγ Double Positive CD4+ T cells” value came to 0.110 and the “Maximum Frequency of TNFα/IFNγ Double Positive CD8+ T cells” value is recorded as 0.460.
